The values below come from patent US20180221546A1, “IMPLANTABLE ORTHOPEDIC DEVICES HAVING ANTIMICROBIAL COATINGS” (TELEFLEX MEDICAL INCORPORATED, priority 2015, published 2018).

Converted amounts (≈) assume the structure as drawn.

Common to all, as to type: cell-based
The subject of one experiment is Acinetobacter baumannii. As to the kind of experiment: MIC and MBC by broth dilution in 96-well plate. As for the experimental part: (§1) From the stock solutions of the drugs Alexidine and Chlorhexidine, dilution series was prepared in the wells of a 96-well plate by performing 1:1 dilutions to cover a concentration range of 0-512 ppm. Ten microliters from each of the drug concentration was mixed with […] of culture broth containing approximately 10^5CFU/mL of bacteria or yeast species. The test plate was incubated for 18-24 hours after which absorbance of each well was read at 670 nm on a BioTek plate reader. […] The wells containing growth should have had higher absorbance reading when compared to the drug control wells. After reading the absorbance for the MIC, 10 μl of each test well was plated onto the surface of D/E agar in 6 or 12 well microtiter plates to determine the MBC. The plates were incubated inverted at 37° C. for 24-48 hours after which numbers of colonies were counted. The MBC value was the lowest concentration of the drug at which no growth was observed.
Background: In broth dilution the organism is exposed to a series of concentrations in liquid medium.

The test system of experiment [1] is Candida albicans. Kind of experiment: MIC and MBC by broth dilution in 96-well plate. As for the experimental part: as §1
The next experiment relates to Enterobacter cloacae. As to the kind of experiment: MIC and MBC by broth dilution in 96-well plate. As for the experimental part: as §1
A further experiment deals with Enterococcus faecalis. As to the kind of experiment: MIC and MBC by broth dilution in 96-well plate. The method, then: as §1
In a further experiment the test system is Proteus mirabilis. Kind of experiment: MIC and MBC by broth dilution in 96-well plate. The method, then:
as §1

For experiment [2], the system named is Pseudomonas aeruginosa. As to the kind of experiment: MIC and MBC by broth dilution in 96-well plate. As for the experimental part:
as §1

Experiment [3] has as its system Staphylococcus aureus. Kind of experiment: MIC and MBC by broth dilution in 96-well plate. As for the experimental part: as §1
The subject of experiment [4] is Candida albicans. As to the kind of experiment: Time to Kill. As to conditions: 128 ppm; C. albicans challenge 10^4-10^5 CFU/mL. The method, then: (§2) Alexidine and Chlorhexidine, both at a concentration of 128 ppm were exposed to a Gram positive bacteria (Staphylococcus aureus), a Gram negative bacteria (Pseudomonas aeruginosa), and a fungus (Candida albicans). The challenge concentration for each organism was 10^4-10^5 CFU/mL, and the exposure time varied from 0.5-60 minutes. […] Complete kill of all three organisms was observed within 0.5 -1 minute of Alexidine exposure.

Experiment [5] has as its system Pseudomonas aeruginosa. Kind of experiment: Time to Kill. Conditions: 128 ppm; P. aeruginosa challenge 10^4-10^5 CFU/mL. As for the experimental part: as §2
Experiment [6] relates to Staphylococcus aureus. Kind of experiment: Time to Kill. As to conditions: 128 ppm; S. aureus challenge 10^4-10^5 CFU/mL. As for the experimental part: as §2

What is called MIC is the smallest concentration in the dilution series that meets the test's criterion for growth inhibition. Lower therefore signals inhibition by little substance. Turning to `CCCCC(CC)CNC(=N)NC(=N)NCCCCCCNC(=N)NC(=N)NCC(CC)CCCC` (stereo not shown) [Alexidine], the MBC against Acinetobacter baumannii came out at 1 µg/mL (≈ 1.97 µM); with Candida albicans [1], 1 µg/mL (≈ 1.97 µM); in the experiment on Enterobacter cloacae, 2 µg/mL (≈ 3.93 µM); with Enterococcus faecalis, 2 µg/mL (≈ 3.93 µM); in the experiment with Proteus mirabilis it was 2 µg/mL (≈ 3.93 µM); against Pseudomonas aeruginosa [2] it was 128 µg/mL (≈ 252 µM). The compound also registered an MBC in the experiment on Staphylococcus aureus [3] of 1 µg/mL (≈ 1.97 µM). In addition, the MIC in the experiment on Acinetobacter baumannii was determined as 0.5 µg/mL (≈ 0.983 µM); with Candida albicans [1], 1 µg/mL (≈ 1.97 µM); in the experiment with Enterobacter cloacae, 2 µg/mL (≈ 3.93 µM); in the experiment on Enterococcus faecalis, 0.5 µg/mL (≈ 0.983 µM); in the experiment on Proteus mirabilis it was 1 µg/mL (≈ 1.97 µM); with Pseudomonas aeruginosa [2], 8 µg/mL (≈ 15.7 µM). Besides, the MIC against Staphylococcus aureus [3] came to 0.5 µg/mL (≈ 0.983 µM). Besides, the “Time to complete kill” value in the experiment with Candida albicans [4], in the experiment with Pseudomonas aeruginosa [5] and in the experiment on Staphylococcus aureus [6] was 0.5 to 1 min in each case.

In the case of `[H]/N=C(\N/C(=N/[H])NCCCCCCNC(=N)NC(=N)Nc1ccc(Cl)cc1)Nc1ccc(Cl)cc1` [Chlorhexidine], the MBC in the experiment on Acinetobacter baumannii turned out to be 32 µg/mL (≈ 63.3 µM); against Candida albicans [1], 4 µg/mL (≈ 7.91 µM); in the experiment with Enterobacter cloacae it was 32 µg/mL (≈ 63.3 µM); with Enterococcus faecalis, 64 µg/mL (≈ 127 µM); against Proteus mirabilis it was 8 µg/mL (≈ 15.8 µM); against Pseudomonas aeruginosa [2], 64 µg/mL (≈ 127 µM). The compound further came in with an MBC in the experiment on Staphylococcus aureus [3] of 16 µg/mL (≈ 31.7 µM). Moreover, the MIC in the experiment with Acinetobacter baumannii is 16 µg/mL (≈ 31.7 µM); against Candida albicans [1], 2 µg/mL (≈ 3.96 µM); in the experiment on Enterobacter cloacae it was 2 µg/mL (≈ 3.96 µM); in the experiment with Enterococcus faecalis, 2 µg/mL (≈ 3.96 µM); with Proteus mirabilis it was 8 µg/mL (≈ 15.8 µM); against Pseudomonas aeruginosa [2] it was 8 µg/mL (≈ 15.8 µM). This compound displayed an MIC against Staphylococcus aureus [3] of 0.5 µg/mL (≈ 0.989 µM). The “Time to complete kill” value in the experiment with Candida albicans [4] was 60 min; with Pseudomonas aeruginosa [5], 5 min; with Staphylococcus aureus [6], 60 min.
